According to patent US6747164B2, “Use of amine compounds with improved biodegradability as adjuvants for pesticides and fertilizers” (priority 2000, dated 2004):
Where “and” joins values, the source holds several entries; their conditions need not be identical. Identical values can stand only once.

Columns and labels:
Assay type in all cases: in vivo
[1] = test system: Brassica napus; assay: Greenhouse test of glyphosate/adjuvant formulations with Brassica napus
[2] = test system: Elymus repens; assay: Greenhouse test of glyphosate/adjuvant formulations with Elymus repens
[3] = test system: Lolium rigidum; assay: Greenhouse test of glyphosate/adjuvant formulations with Lolium rigidum
[4] = Example 2, Table 4, glyphosate 0.75 kg a.e./ha, glyphosate/adjuvant 2:1, 4 weeks after spraying

**Q.** `CCCCC(CC)COC1OC(CO)C(O)C(O)C1O` (centres unmarked) [2-ethylhexyl glucoside, reference compound] was tested. Which Effect [1, 4] did it give?
**A.** 63%

**Q.** For `CCCCCCOC1OC(CO)C(O)C(O)C1O` (centres unmarked) [Hexyl glucoside, reference compound], which Effect [1, 4] is on record?
**A.** 57%

**Q.** What does the source list for “Cocoamide of N,N-bishydroxyethyl-1,3-propylenediamine”?
**A.** Effect ([1]; Example 2, Table 4, glyphosate 0.15 kg a.e./ha, glyphosate/adjuvant 2:1, 4 weeks after spraying): 40%; Effect ([1]; Example 2, Table 4, glyphosate 0.15 kg a.e./ha, glyphosate/adjuvant 5:1, 4 weeks after spraying): 8%; Effect ([1]; Example 2, Table 4, glyphosate 0.25 kg a.e./ha, glyphosate/adjuvant 2:1, 4 weeks after spraying): 70%; Effect ([1]; Example 2, Table 4, glyphosate 0.25 kg a.e./ha, glyphosate/adjuvant 5:1, 4 weeks after spraying): 73%; Effect [1, 4]: 98%; Effect ([1]; Example 2, Table 4, glyphosate 0.75 kg a.e./ha, glyphosate/adjuvant 5:1, 4 weeks after spraying): 87%; Effect ([1]; Example 3, Table 7, glyphosate 0.15 kg a.e./ha, glyphosate/adjuvant 2:1, 4 weeks after spraying): 45%; Effect ([1]; Example 3, Table 7, glyphosate 0.25 kg a.e./ha, glyphosate/adjuvant 2:1, 4 weeks after spraying): 52%; Effect ([1]; Example 3, Table 7, glyphosate 0.75 kg a.e./ha, glyphosate/adjuvant 2:1, 4 weeks after spraying): 90%; Effect ([2]; Example 2, Table 3, glyphosate 0.15 kg a.e./ha, glyphosate/adjuvant 2:1, 5 weeks after spraying, 100% = totally dead plant): 13%; Effect ([2]; Example 2, Table 3, glyphosate 0.15 kg a.e./ha, glyphosate/adjuvant 5:1, 5 weeks after spraying): 8%; Effect ([2]; Example 2, Table 3, glyphosate 0.25 kg a.e./ha, glyphosate/adjuvant 2:1, 5 weeks after spraying): 75%; Effect ([2]; Example 2, Table 3, glyphosate 0.25 kg a.e./ha, glyphosate/adjuvant 5:1, 5 weeks after spraying): 65%; Effect ([2]; Example 2, Table 3, glyphosate 0.75 kg a.e./ha, glyphosate/adjuvant 2:1, 5 weeks after spraying): 97%; Effect ([2]; Example 2, Table 3, glyphosate 0.75 kg a.e./ha, glyphosate/adjuvant 5:1, 5 weeks after spraying): 95%; Effect ([2]; Example 3, Table 6, glyphosate 0.15 kg a.e./ha, glyphosate/adjuvant 2:1, 7 weeks after spraying): 33%; Effect ([2]; Example 3, Table 6, glyphosate 0.25 kg a.e./ha, glyphosate/adjuvant 2:1, 7 weeks after spraying): 47%; Effect ([2]; Example 3, Table 6, glyphosate 0.75 kg a.e./ha, glyphosate/adjuvant 2:1, 7 weeks after spraying): 100%; Effect ([3]; Example 2, Table 5, glyphosate 0.08 kg a.e./ha, glyphosate/adjuvant 2:1, 4 weeks after spraying): 57%; Effect ([3]; Example 2, Table 5, glyphosate 0.08 kg a.e./ha, glyphosate/adjuvant 5:1, 4 weeks after spraying): 23%; Effect ([3]; Example 2, Table 5, glyphosate 0.15 kg a.e./ha, glyphosate/adjuvant 2:1, 4 weeks after spraying): 78%; Effect ([3]; Example 2, Table 5, glyphosate 0.15 kg a.e./ha, glyphosate/adjuvant 5:1, 4 weeks after spraying): 72%; Effect ([3]; Example 2, Table 5, glyphosate 0.25 kg a.e./ha, glyphosate/adjuvant 2:1, 4 weeks after spraying): 97%; Effect ([3]; Example 2, Table 5, glyphosate 0.25 kg a.e./ha, glyphosate/adjuvant 5:1, 4 weeks after spraying): 88%; Effect ([3]; Example 3, Table 8, glyphosate 0.08 kg a.e./ha, glyphosate/adjuvant 2:1, 4 weeks after spraying): 40%; Effect ([3]; Example 3, Table 8, glyphosate 0.15 kg a.e./ha, glyphosate/adjuvant 2:1, 4 weeks after spraying): 58%; Effect ([3]; Example 3, Table 8, glyphosate 0.25 kg a.e./ha, glyphosate/adjuvant 2:1, 4 weeks after spraying): 93%

**Q.** For “Monoester between polyethyleneglycol (2.5 EO)-monococo ether monocarboxymethyl ether and triethanolamine”, which Effect ([3]; in vivo) is on record?
**A.** 48% and 68% and 88%

**Q.** What does the source list for “Monoester between polyethyleneglycol (4.5 EO)-monococo ether monocarboxymethyl ether and triethanolamine”?
**A.** Effect ([1]; in vivo): 58% and 75% and 92%; Effect ([3]; in vivo): 52% and 72% and 96%
